In patent US10125121B2, “FYN kinase inhibitors” (ROTTAPHARM BIOTECH S.R.L., priority 2015, dated 2018) one finds IC50 data, which are given here for 26 compounds.

The experiment addresses active FYN (human recombinant, 62.7 kDa) (Homo sapiens, UniProt P06241). Nature of the experiment: In vitro kinase assay (Z′-LYTE FRET). The format is biochemical. The following applies: read-out: IC50(nM) FYN INHIBITION
As for the experimental part: Assays to determine the kinase inhibitory activity of compounds were performed using an automatic liquid handling device (Microlab STAR Hamilton) and Z′-LYTE™ Kinase Assay Platform, a Fluorescence Resonance Energy Transfer (FRET)-based assay platform compatible with high-throughput screening (HTS) applications. The assay employs a fluorescence-based, coupled-enzyme format and utilizes the differential sensitivity of phosphorylated and non-phosphorylated peptides to proteolytic cleavage.
All reagents were diluted in reaction buffer and the kinase reaction was carried out in a total volume of 10 μl, for 60 minutes at 25° C. The 0% Phosphorylation (i.e. no ATP) and 100% Phosphorylation (i.e. synthetically phosphorylated peptide supplied) Assay Controls, included in each plate, allowed to calculate the percent phosphorylation achieved in the specific reaction well. The 0% Inhibition and 0% Phosphorylation (i.e. 100% Inhibition) Controls define the dynamic range in the screen. At the end of incubation, a secondary reaction (the Development Reaction) started by adding 5 μl of Development Reagent, containing a site-specific protease that recognizes and cleaves non-phosphorylated peptides, and was interrupted after 60 minutes with 5 μl/sample of Stop Reagent.
The compounds were tested in a range of concentrations 10^−6-10^−9 M.
Results are expressed as percentage of inhibition and the IC50 values were calculated by non-linear curve fitting using GraphPad™ Prism software.

SMILES strings stand for the structures.

Chain of active FYN (human recombinant, 62.7 kDa) (P06241 whole entry): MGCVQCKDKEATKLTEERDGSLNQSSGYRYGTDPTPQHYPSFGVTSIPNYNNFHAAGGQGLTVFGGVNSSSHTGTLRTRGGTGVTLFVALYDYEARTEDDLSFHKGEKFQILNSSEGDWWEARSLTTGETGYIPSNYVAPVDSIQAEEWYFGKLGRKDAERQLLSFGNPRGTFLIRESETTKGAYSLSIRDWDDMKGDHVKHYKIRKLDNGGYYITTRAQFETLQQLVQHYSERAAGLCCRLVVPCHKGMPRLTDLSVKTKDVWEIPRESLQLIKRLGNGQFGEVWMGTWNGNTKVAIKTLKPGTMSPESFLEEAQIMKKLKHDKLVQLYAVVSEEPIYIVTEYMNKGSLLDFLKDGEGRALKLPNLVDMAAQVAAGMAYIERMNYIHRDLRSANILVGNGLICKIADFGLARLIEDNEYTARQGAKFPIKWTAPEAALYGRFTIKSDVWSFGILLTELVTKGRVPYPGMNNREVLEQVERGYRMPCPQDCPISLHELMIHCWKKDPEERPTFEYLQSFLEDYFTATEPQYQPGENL

For `CC1CCCN1C(=O)Nc1ccc(CN2CCN(c3nccc(Nc4cc(C5CC5)[nH]n4)n3)CC2)cc1` (centres unmarked) [Compound 48, N-(4-((4-(4-((5-cyclopropyl-1H-pyrazol-3-yl)amino)pyrimidin-2-yl)piperazin-1-yl)methyl)phenyl)-2-methylpyrrolidine-1-carboxamide], the IC50 (as a rule, the point on the concentration scale where inhibition reaches its midpoint) was 37 nM.

As for `Cc1nc(C(=O)Nc2ccc(CN3CCN(c4nccc(Nc5cc(C6CC6)[nH]n5)n4)CC3)nc2)c(C(F)(F)F)o1` [Compound 22, N-(6-((4-(4-((5-cyclopropyl-1H-pyrazol-3-yl)amino)pyrimidin-2-yl)piperazin-1-yl)methyl)pyridin-3-yl)-2-methyl-5-(trifluoromethyl)oxazole-4-carboxamide], the IC50 came out at 424 nM.

For `Cn1cc(C(=O)Nc2ccc(CN3CCN(c4nccc(Nc5cc(C6CC6)[nH]n5)n4)CC3)cc2)c(C(F)(F)F)n1` [Compound 33, N-(4-((4-(4-((5-cyclopropyl-1H-pyrazol-3-yl)amino)pyrimidin-2-yl)piperazin-1-yl)-methyl)phenyl)-1-methyl-3-(trifluoromethyl)-1H-pyrazole-4-carboxamide], the IC50 is 74 nM.

As for `COc1ccnc(Nc2ccnc(N3CCN(Cc4ccc(NC(=O)c5ccccc5C(F)(F)F)cc4)CC3)n2)c1` [Compound 45, N-(4-((4-(4-((4-methoxypyridin-2-yl)amino)pyrimidin-2-yl)piperazin-1-yl)methyl)phenyl)-2-(trifluoromethyl)benzamide], the IC50 amounted to 441 nM.

For the compound `O=C(Nc1ccc(CN2CCN(c3nccc(Nc4cc(C5CC5)[nH]n4)n3)CC2)cc1)c1ccccc1Cl` [Compound 5, 2-chloro-N-(4-((4-(4-((5-cyclopropyl-1H-pyrazol-3-yl)amino)pyrimidin-2-yl)piperazin-1-yl)methyl)phenyl)benzamide], the IC50 is 23 nM.

With `O=C(Nc1ccc(CN2CCN(c3nccc(Nc4cc(C5CC5)[nH]n4)n3)CC2)cc1)c1ccc(F)cc1F` [Compound 11, N-(4-((4-(4-((5-cyclopropyl-1H-pyrazol-3-yl)amino)pyrimidin-2-yl)piperazin-1-yl)methyl)phenyl)-2,4-difluoro-Benzamide], the IC50 was 16 nM.

In the case of `CC(C)c1ccccc1C(=O)Nc1ccc(CN2CCN(c3nccc(Nc4cc(C5CC5)[nH]n4)n3)CC2)cc1` [Compound 6, N-(4-((4-(4-((5-cyclopropyl-1H-pyrazol-3-yl)amino)pyrimidin-2-yl)piperazin-1-yl)methyl)phenyl)-2-isopropylbenzamide], the IC50 amounted to 89 nM.

On to `CS(=O)(=O)c1cccc(C(=O)Nc2ccc(CN3CCN(c4nccc(Nc5cc(C6CC6)[nH]n5)n4)CC3)cc2)c1` [Compound 16, N-(4-((4-(4-((5-cyclopropyl-1H-pyrazol-3-yl)amino)pyrimidin-2-yl)piperazin-1-yl)methyl)phenyl)-3-(methylsulfonyl)benzamide], for which the IC50 is 122 nM.

On to `O=C(Nc1ccc(CN2CCN(c3nccc(Nc4cc(C5CC5)[nH]n4)n3)CC2)cc1)c1ccc(C(F)(F)F)cc1` [Compound 10, N-(4-((4-(4-((5-cyclopropyl-1H-pyrazol-3-yl)amino)pyrimidin-2-yl)piperazin-1-yl)methyl)phenyl)-4-(trifluoromethyl)benzamide], for which the IC50 amounted to 950 nM.

`COc1cc(C)ccc1C(=O)Nc1ccc(CN2CCN(c3nccc(Nc4cc(C5CC5)[nH]n4)n3)CC2)cc1` [Compound 15, N-(4-((4-(4-((5-cyclopropyl-1H-pyrazol-3-yl)amino)pyrimidin-2-yl)piperazin-1-yl)methyl)phenyl)-2-methoxy-4-methyl benzamide]: the IC50 is 220 nM.

Turning to `O=C(Nc1cccc(C(F)(F)F)c1)c1ccc(CN2CCN(c3nccc(Nc4cc(C5CC5)[nH]n4)n3)CC2)cc1` [Compound 38, 4-((4-(4-((5-cyclopropyl-1H-pyrazol-3-yl)amino)pyrimidin-2-yl)piperazin-1-yl)methyl)-N-(3-(trifluoromethyl)-phenyl)benzamide], the IC50 is greater than 1000 nM.

For `COc1ncccc1C(=O)Nc1ccc(CN2CCN(c3nccc(Nc4cc(C5CC5)[nH]n4)n3)CC2)cc1` [Compound 28, N-(4-((4-(4-((5-cyclopropyl-1H-pyrazol-3-yl)amino)pyrimidin-2-yl)piperazin-1-yl)methyl)phenyl)-2-methoxy-nicotinamide], the IC50 came to 237 nM.

Take `C[C@@H]1CN(c2nccc(Nc3cc(C4CC4)[nH]n3)n2)CCN1Cc1ccc(NC(=O)c2cccnc2C(F)(F)F)cc1` [Compound 30, (R)-N-(4-((4-(4-((5-cyclopropyl-1H-pyrazol-3-yl)amino)pyrimidin-2-yl)-2-methylpiperazin-1-yl)methyl)phenyl)-2-(trifluoromethyl)nicotinamide]: the IC50 was determined as 180 nM.

Turning to `O=C(Nc1ccc(CN2CCN(c3nccc(Nc4cc(C5CC5)[nH]n4)n3)CC2)cc1)NC1CCCC1` [Compound 49, 1-cyclopentyl-3-(4-((4-(4-((3-cyclopropyl-1H-pyrazol-5-yl)amino)pyrimidin-2-yl)piperazin-1-yl)methyl)phenyl)urea], the IC50 amounted to 69 nM.

As for `O=C(Nc1ccc(C(F)(F)F)cc1)c1ccc(CN2CCN(c3nccc(Nc4cc(C5CC5)[nH]n4)n3)CC2)cc1` [Compound 39, 4-((4-(4-((5-cyclopropyl-1H-pyrazol-3-yl)amino)pyrimidin-2-yl)piperazin-1-yl)methyl)-N-(4-(trifluoromethyl)phenyl)-benzamide], the IC50 is greater than 1000 nM.

Regarding `Cc1cccnc1C(=O)Nc1ccc(CN2CCN(c3nccc(Nc4cc(C5CC5)[nH]n4)n3)CC2)cc1` [Compound 25, N-(4-((4-(4-((5-cyclopropyl-1H-pyrazol-3-yl)amino)pyrimidin-2-yl)piperazin-1-yl)methyl)phenyl)-3-methyl-picolinamide], the IC50 came to 105 nM.

As to `COc1ccccc1C(=O)Nc1ccc(CN2CCN(c3nccc(Nc4cc(C5CC5)[nH]n4)n3)CC2)cc1` [Compound 7, N-(4-((4-(4-((5-cyclopropyl-1H-pyrazol-3-yl)amino)pyrimidin-2-yl)piperazin-1-yl)methyl)phenyl)-2-methoxy-benzamide], the IC50 was found to be 150 nM.

Regarding `Cc1nc(C(=O)Nc2ccc(CN3CCN(c4nccc(Nc5cc(C6CC6)[nH]n5)n4)CC3)cc2)co1` [Compound 20, N-(4-((4-(4-((5-cyclopropyl-1H-pyrazol-3-yl)amino)pyrimidin-2-yl)piperazin-1-yl)methyl)phenyl)-2-methyloxazole-4-carboxamide], the half-maximal inhibitory concentration (IC50) was 86 nM.

Take `O=C(Nc1ccc(CN2CCN(c3nccc(Nc4cc(C5CC5)[nH]n4)n3)CC2)cc1)c1cnccn1` [Compound 35, N-(4-((4-(4-((5-cyclopropyl-1H-pyrazol-3-yl)amino)pyrimidin-2-yl)piperazin-1-yl)methyl)phenyl)pyrazine-2-carboxamide]: the IC50 is 282 nM.

For the compound `O=C(Nc1ccc(CN2CCN(c3nccc(Nc4cc(C5CC5)[nH]n4)n3)CC2)cc1)c1cccc(C(F)(F)F)c1` [Compound 9, N-(4-((4-(4-((5-cyclopropyl-1H-pyrazol-3-yl)amino)pyrimidin-2-yl)piperazin-1-yl)methyl)phenyl)-3-(trifluoromethyl)benzamide], the IC50 is greater than 1000 nM.

Take `CCc1cc(NC(=O)c2ccccc2F)ccc1CN1CCN(c2nc(C)cc(Nc3cc(C4CC4)[nH]n3)n2)CC1` [Compound 19, N-(4-((4-(4-((5-cyclopropyl-1H-pyrazol-3-yl)amino)-6-methylpyrimidin-2-yl)piperazin-1-yl)methyl)-3-ethylphenyl)-2-fluorobenzamide]: the IC50 worked out at 1020 nM.

Turning to `O=S(=O)(Nc1ccc(CN2CCN(c3nccc(Nc4cc(C5CC5)[nH]n4)n3)CC2)cc1)c1ccccc1F` [Compound 40, N-(4-((4-(4-((5-cyclopropyl-1H-pyrazol-3-yl)amino)pyrimidin-2-yl)piperazin-1-yl)methyl)phenyl)-2-fluorobenzene-sulfonamide], the IC50 was 280 nM.

Regarding `O=C(Nc1ccc(CN2CCN(c3nccc(Nc4cc(C5CC5)[nH]n4)n3)CC2)cc1)c1ccccn1` [Compound 24, N-(4-((4-(4-((5-cyclopropyl-1H-pyrazol-3-yl)amino)pyrimidin-2-yl)piperazin-1-yl)methyl)phenyl)picolinamide], the IC50 amounted to 1100 nM.

With `O=C(Nc1ccc(CN2CCN(c3nccc(Nc4cc(C5CC5)[nH]n4)n3)CC2)cc1)c1ccccc1` [Compound 1, N-(4-((4-(4-((5-cyclopropyl-1H-pyrazol-3-yl)amino)pyrimidin-2-yl)piperazin-1-yl)methyl)phenyl)benzamide], the IC50 is 96 nM.

Turning to `C[C@H]1CN(c2nccc(Nc3cc(C4CC4)[nH]n3)n2)CCN1Cc1ccc(NC(=O)c2cccnc2C(F)(F)F)cc1` [Compound 31, (S)-N-(4-((4-(4-((5-cyclopropyl-1H-pyrazol-3-yl)amino)pyrimidin-2-yl)-2-methyl-piperazin-1-yl)methyl)phenyl)-2-(trifluoromethyl)nicotinamide], the IC50 worked out at 667 nM.

With `O=C(Nc1ccc(OC(F)(F)F)cc1)c1ccc(CN2CCN(c3nccc(Nc4cc(C5CC5)[nH]n4)n3)CC2)cc1` [Compound 37, 4-((4-(4-((5-cyclopropyl-1H-pyrazol-3-yl)amino)pyrimidin-2-yl)piperazin-1-yl)methyl)-N-(4-(trifluoromethoxy)phenyl)benzamide], the IC50 was greater than 1000 nM.
